Results from publication PMC5393024, “Discovery and characterization of natural tropolones as inhibitors of the antibacterial target CapF from Staphylococcus aureus” (Scientific Reports, 2015).

Assays:
[1] = target: T1, CapF lacking the His6-tag (Staphylococcus aureus, UniProt A0A0H3JP37); assay: ITC binding to CapF lacking the His6-tag
T1 sequence (A0A0H3JP37 1-369): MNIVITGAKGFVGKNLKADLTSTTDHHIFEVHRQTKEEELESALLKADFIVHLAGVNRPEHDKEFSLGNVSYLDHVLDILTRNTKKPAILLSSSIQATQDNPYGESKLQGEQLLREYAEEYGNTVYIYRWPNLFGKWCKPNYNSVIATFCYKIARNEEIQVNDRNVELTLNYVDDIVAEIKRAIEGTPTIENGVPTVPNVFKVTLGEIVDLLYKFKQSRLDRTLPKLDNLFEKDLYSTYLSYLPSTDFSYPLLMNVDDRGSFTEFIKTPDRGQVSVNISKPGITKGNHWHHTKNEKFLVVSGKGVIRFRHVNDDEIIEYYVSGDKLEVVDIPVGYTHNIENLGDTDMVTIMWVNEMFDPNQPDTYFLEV
Method: A control experiment with CapF lacking the His6-tag was carried to rule out the possibility of spurious effects caused by the affinity tag (Supplementary Information Figure S4).
Figure S4. Binding of 3-isopropyl-tropolone to CapF lacking the His6-tag. Titration of CapF (220 µM) with 2.2 mM inhibitor in a buffer composed of 10 mM HEPES (pH 7.5), 150 mM NaCl, and 5% DMSO at 25 °C. A construct of full-length CapF bearing a cleavable His6-tag was prepared and purified exactly as that of CapF Δ57-70 (see Methods section for the detailed protocol of CapFΔ57-70), except that (i) the dialysis buffer after to reconstitute the enzyme with Zn2+ contained 150 mM NaCl (instead of 50 mM) and 12.5 µM ZnCl2 (instead of 10 µM), and (ii) the buffer of the size exclusion chromatography step contained 10 mM HEPES (instead of 50 mM) and 150 mM NaCl (instead of 50 mM). The values of the thermodynamic parameters […]
kcal mol-1, and n = 0.92 ± 0.1.
(§1) (1 picture or pasted object on this page, not shown here)

CapF [2] = assay: HPLC-based inhibition assay (CapE/CapF coupled reaction); format: biochemical, Staphylococcus aureus; details: 1 mM compound, 37 °C, 2 hours
Method: (§2) For that purpose, an HPLC-based assay monitoring the consumption of substrate and the appearance of product was employed (Fig. 2b)[12]. Whereas in the absence of 3-isopropenyl-tropolone the substrate was converted into product with nearly quantitative yield (91%), in the presence of 1 mM 3-isopropenyl-tropolone the peaks corresponding to substrate and product were largely absent (their combined areas were <18%). Instead, a large peak corresponding to the byproduct generated by the enzyme CapE under thermodynamic control was observed (80% yield as judged from the area under the curve). To confirm that inhibition of 3-isopropenyl-tropolone is specific for CapF we performed an additional experiment employing only CapE, which is the enzyme generating the substrate for CapF in the functional assay (Supplementary Information Figure S2).
For the HPLC-based inhibition assay, a solution containing 1.0 μM CapE, 0.02 μM CapF, 250 μM UDP-D-GlcNAc, 250 μM NADPH, and 1 mM compound in HBS buffer supplemented with 0.005% (v/v) Tween-20 and 5% (v/v) DMSO were incubated at 37 °C for 2 hours. The reaction was stopped by addition of 100 μL of ice-cold phenol/chloroform/isoamyl alcohol in a 25:24:1 […]. The supernatant containing the products of the reaction was mixed with 100 μL of chloroform and examined by HPLC using a CarboPac PA1 anion-exchange column (Dionex) as described previously. […]

CapE = assay: HPLC assay employing only CapE; format: biochemical, Staphylococcus aureus; details: CapF not present
Method: as §2
Figure S2. Elution profile of compounds after incubation of the substrate UDP-D-GlcNAc with
CapE in the absence (red line) and presence (black line) of 3-isopropenyl-tropolone. In this
experiment CapF was not present. Experimental conditions are described in the Methods section.
The blue, red and green triangles indicate the elution peaks of product, substrate, and by-product,
as §1

CapF [3] = assay: NADPH consumption assay (absorbance at 340 nm); format: biochemical, Staphylococcus aureus; details: 0.02 μM CapF, 1.0 μM CapE, 125 μM UDP-D-GlcNAc, 250 μM NADPH, 37 °C
Method: A second assay monitoring the consumption of NADPH corroborates the inhibitory effect of 3-isopropenyl-tropolone (Fig. 2c). This assay is sensitive to the NADPH consumed by the SDR domain during the second reaction catalyzed by CapF (reduction step). […] Nevertheless, additional experiments were required to corroborate that idea (see below).
The enzymatic performance of CapF was evaluated by examining the consumption of NADPH spectrophotometrically, or by monitoring the disappearance of substrate and the formation of product by HPLC[9][12]. First, the time-dependent consumption of NADPH (monitored from a decrease of adsorption at 340 nm) was carried out in 384-well plates at a final volume of 50 μL. The solution contained 1.0 μM CapE, 0.02 μM CapF, 125 μM UDP-D-GlcNAc (substrate), 250 μM NADPH and fragment compounds at various concentrations in HBS supplemented with 0.005% (v/v) Tween-20 and 5% (v/v) DMSO. Each reaction mixture was incubated at 37 °C and the absorption at 340 nm was measured with a plate reader (PHERAstar, BMG Labtech, Durham, NC).
Figure S7. (a) Structure of compounds employed. (b-d) Time course of NADPH consumption by CapF in the presence of (b) tropolone, (c) 4-isopropyl-tropolone, and (d) 2-Cl-tropone. Increasing the concentration of compounds decreases the rate of consumption of NADPH. (e-g) Inhibition after two hours for (e) tropolone, (f) 4-isopropyl-tropolone, and (g) 2-Cl-tropone. Concentration of CapE and CapF was 1.0 µM and 0.02 µM, respectively. Concentration of NADPH and UDP-D-GlcNAc was 250 µM and 125 µM, respectively. The change of absorbance was calculated with respect to a control assay in the absence of CapF.
as §1

WT CapF = assay: DSC thermal stability of WT CapF; format: binding, Staphylococcus aureus; details: 24 μM protein, 240 μM inhibitor
Method: Thermal stability of CapF was examined by DSC in a ultrasensitive VP-capillary micro-calorimeter (Microcal). Prior to the experiment the protein was equilibrated in a buffer composed of 50 mM HEPES (pH 7.5), 50 mM NaCl and 5% DMSO. The concentration of protein and inhibitor were adjusted to 24 μM and 240 μM, respectively. The samples were heated between 10 and 110 °C at a scan rate of 1 °C/min. Data analysis was carried out with ORIGIN7 using a two-state transition model.

Compound: C=C(C)c1ccccc(=O)c1O [3-isopropenyl-tropolone]
- Kd [1]: 13 ± 1 µM
- -TΔS ([1]; ITC, 25 °C): -12.6 ± 1.7 kJ/mol
- n ([1]; ITC, 25 °C): 0.92 ± 0.1
- ΔH ([1]; ITC, 25 °C): -15.1 ± 1.3 kJ/mol
- yield of byproduct generated by CapE (area under the curve) (CapF [2]): 80%
- combined areas of substrate and product peaks (CapF [2]; 91% product without inhibitor): < 18%
- HPLC profile of the reaction products of CapE in presence of inhibitor (CapE): not altered
- inhibition of NADPH consumption (CapF [3]): rate of consumption of NADPH slowed down as the concentration of inhibitor increases
- inhibition of NADPH consumption (CapF [3]; listed as 3-isopropylen-tropolone): inhibited the consumption of NADPH in a concentration-dependent basis
- ΔTM (decrease in thermal stability) (WT CapF): 5.2 ± 0.4 °C
- TM (WT CapF; WT CapF alone 59.9 ± 0.2): 54.7 ± 0.2 °C
